Measurements published in patent publication US7572799B2, “Pyrazolo[4,3-d]pyrimidines as Phosphodiesterase Inhibitors” (Pfizer Inc, priority 2003, dated 2009).

These molecules were tested against PDE-5 (UniProt O76074) (assay: In vitro PDE inhibitory activity against PDE5 (batch method or scintillation proximity assay)). Settings: representative compounds.
Format: biochemical, human
Excerpt: The compounds of the invention are inhibitors of cyclic guanylate monophosphate (cGMP)-specific phosphodiesterase type 5 (PDE-5 inhibitors).
The required PDE enzymes can be isolated from a variety of sources, including human corpus cavernosum, human and rabbit platelets, human cardiac ventricle, human skeletal muscle and bovine retina, essentially by a modification of the method of Thompson, W J et al.; Biochemistry 18(23), 5228-5237, 1979, as described by Ballard S A et al.; J. Urology 159(6), 2164-2171, 1998. In particular, cGMP-specific PDE5 and cGMP-inhibited cAMP PDE3 can be obtained from human corpus cavernosum tissue, human platelets or rabbit platelets; cGMP-stimulated PDE2 was obtained from human corpus cavernosum; calcium/calmodulin (Ca/CAM)-dependent PDE1 from human cardiac ventricle; cAMP-specific PDE4 from human skeletal muscle; and photoreceptor PDE6 from bovine retina. Phosphodiesterases 7-11 can be generated from full length human recombinant clones transfected into SF9 cells.
Assays can be performed either using a modification of the “batch”method of Thompson W J and Appleman M M; Biochemistry 10(2), 311-316, 1971, essentially as described by Ballard S A et al.; J. Urology 159(6), 2164-2171, 1998, or using a scintillation proximity assay for the direct detection of [^3H]-labelled AMP/GMP using a modification of the protocol described by Amersham plc under product code TRKQ7090/7100. In summary, for the scintillation proximity assay the effect of PDE inhibitors was investigated by assaying a fixed amount of enzyme in the presence of varying inhibitor concentrations and low substrate, (cGMP or cAMP in a 3:1 ratio unlabelled to [^3H]-labeled at a concentration of ˜⅓ Km, or less) such that IC50≅Ki. The final assay volume was made up to 100 μl with assay buffer [20 mM Tris-HCl pH 7.4, 5 mM MgCl2, 1 mg/ml bovine serum albumin]. Reactions were initiated with enzyme, incubated for 30-60 min at 30° C. to give <30% substrate turnover and terminated with 50 μl yttrium silicate SPA beads (containing 3 mM of the respective unlabelled cyclic nucleotide for PDEs 9 and 11).

For `COC(C)CCn1nc(C(=O)O)c2nc(N(C)C(C)C)nc(Nc3cc(C)ccn3)c21` (centres unmarked) [Example 107], which IC50 is on record?
Its IC50 is 0.307 nM.

Same assay, conditions: representative compounds, read-out: IC50

For `CCOCCn1nc(-c2nc(=O)o[nH]2)c2nc(N(C)CC)nc(Nc3ccc(F)c(C)c3)c21` [Example 77], which IC50 is on record?
Its IC50 is 0.162 nM.

For `CCOCCn1nc(-c2nc(=O)o[nH]2)c2nc(N(CC)CC)nc(Nc3ccc(F)c(C)c3)c21` [Example 78], which IC50 is on record?
Its IC50 is 0.24 nM.

For `CCOCCn1nc(-c2nnn[nH]2)c2nc(N(C)C(C)C)nc(Nc3cc(C)ccn3)c21` [Example 79], which IC50 is on record?
The IC50 was 0.332 nM.

How did the IC50 turn out when `CCOCCn1nc(-c2nnn[nH]2)c2nc(N(C)C)nc(Nc3cc(C)ccn3)c21` [Example 80] was run?
Its IC50 is 2.88 nM.

For `CCOCCn1nc(C(=O)O)c2nc(N(C)C(C)C)nc(Nc3ccc(F)cn3)c21` [Example 81, 1-(2-Ethoxyethyl)-7-(5-fluoropyridin-2-ylamino)-5-(N-isopropyl-N-methylamino)-1H-pyrazolo[4,3-d]pyrimidine-3-carboxylic acid], which IC50 is on record?
Its IC50 is 16.7 nM.

Which IC50 does the source give for `CCOCCn1nc(C(=O)O)c2nc(N(C)C)nc(NC3CCOCC3)c21` [Example 82] here?
Its IC50 is 55.1 nM.

`CCOCCn1nc(C(=O)O)c2nc(N(C)C(C)C)nc(NC3CCOCC3)c21` [Example 83] was tested. Which IC50 did it give?
Its IC50 is 27.8 nM.

`CCOCCn1nc(C(=O)O)c2nc(N(C)C(C)C)nc(Nc3cccc(OC)n3)c21` [Example 84] was tested. Which IC50 did it give?
The IC50 was 2.37 nM.

Which IC50 does the source give for `CCOCCn1nc(C(=O)O)c2nc(N(C)C(C)C)nc(Nc3ccc(F)c(C)c3)c21` [Example 85] here?
The IC50 was 0.055 nM.

How did the IC50 turn out when `CCOCCn1nc(C(=O)O)c2nc(N(CC)CC)nc(Nc3ccc(F)c(C)c3)c21` [Example 86] was run?
Its IC50 is 0.063 nM.

With `CCOCCn1nc(C(=O)O)c2nc(N(C)CC)nc(Nc3ccc(F)c(C)c3)c21` [Example 87] as the molecule, how does the IC50 read?
The IC50 was 0.087 nM.

For `CCOCCn1nc(C(=O)O)c2nc(N(C)C(C)C)nc(Nc3cccc(F)c3)c21` [Example 88], which IC50 is on record?
The IC50 was 21.3 nM.

For `CCOCCn1nc(C(=O)O)c2nc(N(C)C(C)C)nc(Nc3ccc(F)c(F)c3)c21` [Example 90], which IC50 is on record?
The IC50 was 2.83 nM.

How did the IC50 turn out when `CCOCCn1nc(C(=O)O)c2nc(N(C)C(C)C)nc(Nc3cc(F)cc(F)c3)c21` [Example 91] was run?
Its IC50 is 5.06 nM.

With `CCOCCn1nc(C(=O)O)c2nc(N(C)C(C)C)nc(Nc3cc(F)ccc3F)c21` [Example 92] as the molecule, how does the IC50 read?
The IC50 was 41 nM.

With `CCOCCn1nc(C(=O)O)c2nc(N(C)C(C)C)nc(Nc3cccc(F)c3F)c21` [Example 93] as the molecule, how does the IC50 read?
The IC50 was 23.2 nM.

Which IC50 does the source give for `CCOCCn1nc(C(=O)O)c2nc(N(C)C(C)C)nc(Nc3cccc(C)c3)c21` [Example 94] here?
Its IC50 is 0.303 nM.

How did the IC50 turn out when `CCOCCn1nc(C(=O)O)c2nc(N(C)C(C)C)nc(Nc3ccccc3)c21` [Example 95] was run?
Its IC50 is 9.11 nM.

For `CCOCCn1nc(C(=O)O)c2nc(N(C)CC)nc(Nc3cc(C)ccn3)c21` [Example 96], which IC50 is on record?
Its IC50 is 3.65 nM.

Which IC50 does the source give for `CCOCCn1nc(C(=O)O)c2nc(N(C)CC)nc(Nc3cccc(CC)n3)c21` [Example 97] here?
Its IC50 is 9.74 nM.

`CCOCCn1nc(C(=O)O)c2nc(N(C)C(C)C)nc(Nc3cccc(C)n3)c21` [Example 99] was tested. Which IC50 did it give?
Its IC50 is 2.45 nM.

For `CCOCCn1nc(C(=O)O)c2nc(N(C)C)nc(Nc3cc(C)ccc3F)c21` [Example 100], which IC50 is on record?
The IC50 was 3.48 nM.

How did the IC50 turn out when `CCOCCn1nc(C(=O)O)c2nc(N(C)CC)nc(Nc3cc(C)ccc3F)c21` [Example 101] was run?
Its IC50 is 8.45 nM.

`CCOCCn1nc(C(=O)O)c2nc(N(C)C)nc(Nc3ccc(C)c(C)c3)c21` [Example 102] was tested. Which IC50 did it give?
The IC50 was 38.2 nM.

Which IC50 does the source give for `CCOCCn1nc(C(=O)O)c2nc(N(C)CC)nc(Nc3ccc(C)c(C)c3)c21` [Example 103] here?
The IC50 was 21.4 nM.

How did the IC50 turn out when `CCOCCn1nc(C(=O)O)c2nc(N(C)C(C)C)nc(Nc3ccccc3F)c21` [Example 104] was run?
The IC50 was 9.69 nM.

`CCOCCn1nc(C(=O)O)c2nc(N(C)C(C)C)nc(Nc3ccccn3)c21` [Example 105] was tested. Which IC50 did it give?
The IC50 was 0.741 nM.

With `Cc1ccnc(Nc2nc(N(C)C(C)C)nc3c(C(=O)O)nn(CCOCC4CC4)c23)c1` [Example 108] as the molecule, how does the IC50 read?
Its IC50 is 18.3 nM.

Which IC50 does the source give for `CCN(C)c1nc(Nc2cc(C)ccn2)c2c(n1)c(C(=O)O)nn2CCOCC1CC1` [Example 109] here?
The IC50 was 9.7 nM.

How did the IC50 turn out when `CCOCCn1nc(C(=O)O)c2nc(N(C)C(C)C)nc(Nc3cc(C)ccn3)c21` [Example 110, 1-(2-Ethoxyethyl)-5-(N-isopropyl-N-methylamino)-7-(4-methylpyridin-2-ylamino)-1H-pyrazolo[4,3-d]pyrimidine-3-carboxylic acid] was run?
Its IC50 is 0.564 nM.

How did the IC50 turn out when `Cc1ccnc(Nc2nc(N(C)C(C)C)nc3c(C(=O)O)nn(CCOC(C)C)c23)c1` [Example 111, 1-(2-Isopropoxyethyl)-5-(N-isopropyl-N-methylamino)-7-(4-methylpyridin-2-ylamino)-1H-pyrazolo[4,3-d]pyrimidine-3-carboxylic acid] was run?
Its IC50 is 0.502 nM.

Which IC50 does the source give for `CO[C@H](C)Cn1nc(C(=O)O)c2nc(N(C)C(C)C)nc(Nc3cc(C)ccn3)c21` [Example 112, (2′R)-5-(N-Isopropyl-N-methylamino)-1-(2′-methoxypropyl)-7-(4-methylpyridin-2-ylamino)-1H-pyrazolo[4,3-d]pyrimidine-3-carboxylic acid] here?
The IC50 was 14.7 nM.

`CCOCCn1nc(C(=O)NS(C)(=O)=O)c2nc(N(C)C(C)C)nc(Nc3cc(C)ccn3)c21` [Example 113, N-[1-(2-Ethoxyethyl)-5-(N-isopropyl-N-methylamino)-7-(4-methylpyridin-2-ylamino)-1H-pyrazolo[4,3-d]pyrimidine-3-carbonyl]methanesulfonamide] was tested. Which IC50 did it give?
The IC50 was 0.27 nM.

How did the IC50 turn out when `CCOCCn1nc(C(=O)NS(C)(=O)=O)c2nc(N(C)C)nc(Nc3cc(C)ccn3)c21` [Example 114, N-[5-(Dimethylamino)-1-(2-ethoxyethyl)-7-(4-methylpyridin-2-ylamino)-1H-pyrazolo[4,3-d]pyrimidine-3-carbonyl]methanesulfonamide] was run?
Its IC50 is 4.83 nM.

With `CCOCCn1nc(C(=O)OC)c2nc(N(C)CC)nc(Nc3ccc(F)c(C)c3)c21` [Example 116, Methyl 1-(2-ethoxyethyl)-5-[ethyl(methyl)amino]-7-[(4-fluoro-3-methylphenyl)amino]-1H-pyrazolo[4,3-d]pyrimidine-3-carboxylate] as the molecule, how does the IC50 read?
Its IC50 is 0.032 nM.

`CCOCCn1nc(C(=O)OC)c2nc(N(CC)CC)nc(Nc3ccc(F)c(C)c3)c21` [Example 117, Methyl 5-(diethylamino)-1-(2-ethoxyethyl)-7-[(4-fluoro-3-methylphenyl)amino]-1H-pyrazolo[4,3-d]pyrimidine-3-carboxylate] was tested. Which IC50 did it give?
Its IC50 is 0.025 nM.

With `CCOCCn1nc(C(=O)O)c2nc(N(C)CC)nc(Nc3cccc(C)c3)c21` [Example 118, 1-(2-Ethoxyethyl)-5-[ethyl(methyl)amino]-7-[(3-methylphenyl)amino]-1H-pyrazolo[4,3-d]pyrimidine-3-carboxylic acid] as the molecule, how does the IC50 read?
The IC50 was 1.72 nM.

For `CCN(C)c1nc(Nc2cc(C)ccn2)c2c(n1)c(C(=O)O)nn2CCOC` [Example 119], which IC50 is on record?
The IC50 was 11.5 nM.

How did the IC50 turn out when `CCOCCn1nc(C(=O)O)c2nc(N(C)CC)nc(Nc3cc(C)ncn3)c21` [Example 120] was run?
The IC50 was 1.12 nM.

For `CCOCCn1nc(C(=O)O)c2nc(N(C)C(C)C)nc(Nc3cc(C)ncn3)c21` [Example 123], which IC50 is on record?
Its IC50 is 0.628 nM.

How did the IC50 turn out when `CCOCCn1nc(C(=O)O)c2nc(N(CC)CC)nc(Nc3ccc(=O)n(C)c3)c21` [Example 125, 5-(Diethylamino)-1-(2-ethoxyethyl)-7-[(1-methyl-6-oxo-1,6-dihydropyridin-3-yl)amino]-1H-pyrazolo[4,3-]pyrimidine-3-carboxylic acid] was run?
The IC50 was 1.53 nM.

Which IC50 does the source give for `Cc1ccnc(Nc2nc(N(C)C(C)C)nc3c(C(=O)O)nn(CCOCC(F)(F)F)c23)c1` [Example 126, 5-[Isopropyl(methyl)amino]-7-[(4-methylpyridin-2-yl)amino]-1-[2-(2,2,2-trifluoroethoxy)ethyl]-1H-pyrazolo[4,3-d]pyrimidine-3-carboxylic acid] here?
Its IC50 is 3.05 nM.

For `CCN(C)c1nc(Nc2cc(C)ccn2)c2c(n1)c(C(=O)O)nn2CCOCC(F)(F)F` [Example 127, 5-[Ethyl(methyl)amino]-7-[(4-methylpyridin-2-yl)amino]-1-[2-(2,2,2-trifluoroethoxy)ethyl]-1H-pyrazolo[4,3-d]pyrimidine-3-carboxylic acid], which IC50 is on record?
The IC50 was 6.34 nM.

For `CCN(CC)c1nc(Nc2cc(C)ccn2)c2c(n1)c(C(=O)O)nn2CCOCC(F)(F)F` [Example 128, 5-(Diethylamino)-7-[(4-methylpyridin-2-yl)amino]-1-[2-(2,2,2-trifluoroethoxy)ethyl]-1H-pyrazolo[4,3-d]pyrimidine-3-carboxylic acid], which IC50 is on record?
Its IC50 is 3.94 nM.

`Cc1ccnc(Nc2nc(N3CCCC3C)nc3c(C(=O)O)nn(CCOCC(F)(F)F)c23)c1` (centres unmarked) [Example 129, 7-[(4-Methylpyridin-2-yl)amino]-5-(2-methylpyrrolidin-1-yl)-1-[2-(2,2,2-trifluoroethoxy)ethyl]-1H-pyrazolo[4,3-d]pyrimidine-3-carboxylic acid] was tested. Which IC50 did it give?
The IC50 was 7.78 nM.

How did the IC50 turn out when `Cc1ccnc(Nc2nc(N(C)C3CCC3)nc3c(C(=O)O)nn(CCOCC(F)(F)F)c23)c1` [Example 130, 5-[Cyclobutyl(methyl)amino]-7-[(4-methylpyridin-2-yl)amino]-1-[2-(2,2,2-trifluoroethoxy)ethyl]-1H-pyrazolo[4,3-d]pyrimidine-3-carboxylic acid] was run?
Its IC50 is 19.5 nM.
